From BindingDB's records for doi:10.3109/14756366.2011.599065 (Wuhan Textile University, 2012)
pIC50: −log10 of the molar value.

Columns and labels:
Urease subunit alpha [1] = target: Urease subunit alpha (Helicobacter pylori (strain J99 / ATCC 700824) (Campylobacter pylori J99), UniProt I0ZGT0+I0ZGT1); experiment: Urease Inhibition Assay; settings: pH 7.4; 4 °C
Description: (§1) Briefly, 50 mL broth cultures (2.0 × 10^8 CFU/mL) were centrifuged (5000g, 4°C)to collect the bacteria, and after washing twice with phosphate-buffered saline (pH 7.4), the H. pylori precipitation was stored at −80°C. H. pylori was returnedto room temperature, and after the addition of 3 mL of distilled water and protease inhibitors, sonication was performed for 60 s. Following centrifugation(15,000g, 4°C), the supernatant was desalted through SephadexG-25 column (PD-10 columns, Amersham-Pharmacia Biotech, Uppsala, Sweden). The resultant crude urease solution was added to an equal volume of glycerol and stored at 4°C until use in the experiment. The mixture, containing 25 μL (4U) of H. pylori urease (100 mM HEPES, pH 6.8) and 25 μL of the test compounds of various concentrations, was preincubated for 3 h at room temperature in a 96-well assay plate. After preincubation, 0.2 mL of 100 mM HEPES (pH 6.8) buffer containing 500 mM urea and 0.002% phenol red were added and incubated at 37°C.

Urease subunit alpha [2] = target: Urease subunit alpha (Helicobacter pylori (strain ATCC 700392 / 26695), UniProt P69997); experiment: Urease Inhibition Assay; settings: pH 7.4; 4 °C
Sequence of Urease subunit alpha (Helicobacter pylori (strain ATCC 700392 / 26695), UniProt P69997) (P14916 whole entry): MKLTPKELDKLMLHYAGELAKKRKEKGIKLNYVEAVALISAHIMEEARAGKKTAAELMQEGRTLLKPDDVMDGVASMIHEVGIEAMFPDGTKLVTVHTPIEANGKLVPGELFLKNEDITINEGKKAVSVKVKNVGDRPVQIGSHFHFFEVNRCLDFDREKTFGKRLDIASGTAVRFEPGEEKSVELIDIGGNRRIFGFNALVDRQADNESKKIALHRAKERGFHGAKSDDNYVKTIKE
Sequence of Urease subunit alpha (Helicobacter pylori (strain ATCC 700392 / 26695), UniProt P69997) (P69997 whole entry): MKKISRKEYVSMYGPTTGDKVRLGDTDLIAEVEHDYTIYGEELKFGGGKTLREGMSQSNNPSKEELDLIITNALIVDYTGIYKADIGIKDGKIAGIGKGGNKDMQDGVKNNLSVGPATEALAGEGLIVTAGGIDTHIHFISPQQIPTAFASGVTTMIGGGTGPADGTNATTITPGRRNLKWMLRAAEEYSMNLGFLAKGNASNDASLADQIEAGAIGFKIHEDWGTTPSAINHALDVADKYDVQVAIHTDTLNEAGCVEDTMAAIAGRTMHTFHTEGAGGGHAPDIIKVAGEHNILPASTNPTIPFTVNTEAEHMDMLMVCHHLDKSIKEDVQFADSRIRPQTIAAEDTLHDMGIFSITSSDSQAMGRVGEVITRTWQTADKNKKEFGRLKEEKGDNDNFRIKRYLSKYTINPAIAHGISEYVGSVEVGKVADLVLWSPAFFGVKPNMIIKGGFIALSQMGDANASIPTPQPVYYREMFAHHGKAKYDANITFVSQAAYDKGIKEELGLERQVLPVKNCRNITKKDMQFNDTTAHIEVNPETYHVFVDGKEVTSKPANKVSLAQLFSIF
Description: as §1

Sequence of Urease subunit alpha (Helicobacter pylori (strain J99 / ATCC 700824) (Campylobacter pylori J99), UniProt I0ZGT0+I0ZGT1) (I0ZGT1 whole entry): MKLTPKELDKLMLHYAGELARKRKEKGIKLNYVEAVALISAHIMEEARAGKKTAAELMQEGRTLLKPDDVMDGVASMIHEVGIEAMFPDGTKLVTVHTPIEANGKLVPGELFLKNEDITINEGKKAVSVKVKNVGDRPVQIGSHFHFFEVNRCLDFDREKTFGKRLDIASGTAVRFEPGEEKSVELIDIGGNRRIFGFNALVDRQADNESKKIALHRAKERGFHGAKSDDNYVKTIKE
Sequence of Urease subunit alpha (Helicobacter pylori (strain J99 / ATCC 700824) (Campylobacter pylori J99), UniProt I0ZGT0+I0ZGT1) (I0ZGT0 whole entry): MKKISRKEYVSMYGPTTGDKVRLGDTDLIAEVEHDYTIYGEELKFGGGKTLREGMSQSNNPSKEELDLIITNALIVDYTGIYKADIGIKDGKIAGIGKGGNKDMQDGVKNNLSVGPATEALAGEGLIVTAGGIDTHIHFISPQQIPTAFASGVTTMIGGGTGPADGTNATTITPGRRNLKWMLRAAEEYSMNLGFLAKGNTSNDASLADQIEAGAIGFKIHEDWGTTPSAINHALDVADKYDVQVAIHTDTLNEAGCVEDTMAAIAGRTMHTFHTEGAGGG

pIC50 (Urease subunit alpha [1])	pIC50 (Urease subunit alpha [2])	SMILES
4.37		CC(=O)NO [acetohydroxamic acid]
	< 4.00	Cc1ccc(C(=O)O)cc1 [SAMPL4, O2]
< 4.00		Cc1cnc(C(=O)O)cn1 [5-Methylpyrazine-2-carboxylic acid]
	< 4.00	NCc1ccccc1
